The values below come from patent publication US7432226B2, “Herbicidally active composition” (Bayer CropScience GmbH, priority 2003, dated 2008).

Common to all, as to settings: in vivo
The subject of series [1] is Wheat, cultivar “Kanzler”. Kind of series: Herbicidal post-emergence action, damage to crop plants: wheat Kanzler. The protocol: (§1) Herbicidal Post-emergence Action
(§2) Seeds of monocotyledonous and dicotyledonous weeds and of crop plants are placed in sandy loam soil in plastic pots, covered with soil and cultivated in a greenhouse under good growth conditions.
(§3) Three weeks after sowing, the test plants are treated at the 3-4-leaf stage.
(§4) Stated is the respective degree of damage to the crop plants and the reduction of the damage by the herbicide/safener combinations according to the invention in percent, compared with the herbicide applied alone.

For series [2], the system named is Barley, cultivar “Baronesse”. Kind of series: Herbicidal post-emergence action, damage to crop plants: barley Baronesse. Here is the method:
as §1, §2, §3, §4

Series [3] deals with Corn, cultivar “Lorenzo”. Kind of series: Herbicidal post-emergence action, damage to crop plants: corn. The protocol:
as §1, §2, §3, §4

Series [4] relates to Barley, cultivar “Duett”. Kind of series: Herbicidal post-emergence action, damage to crop plants: barley Duett. Here is the method: as §1, §2, §3, §4

As to `COC(=O)c1ccccc1S(=O)(=O)NC(=O)Nc1nc(C)nc(OC)n1` [herbicide A1.1, metsulfuron-methyl], the values for the Degree of damage in series [1], in series [2] and in series [3] were 10%, 10% and 50%, respectively.
On to `COC(=O)c1sccc1S(=O)(=O)NC(=O)Nc1nc(C)nc(OC)n1` [herbicide A2.1, thifensulfuron-methyl], for which the Degree of damage was determined as 10% in series [1], 20% in series [4] and 20% in series [3].
For `COC(=O)c1ccccc1S(=O)(=O)NC(=O)N(C)c1nc(C)nc(OC)n1` [herbicide A3.1, tribenuron-methyl], the Degree of damage in series [1] was 20%; in series [3] it was 10%.
For the compound `COc1nc(C)nc(NC(=O)NS(=O)(=O)c2ccccc2Cl)n1` [herbicide A4.1, chlorsulfuron], the Degree of damage in series [2] was determined as 10%; in series [3], 70%.
